Legend:
Type in all cases: cell-based
[1] = test system: primary human mesenchymal stem cells (hMSCs); assay: Induction of chondrogenesis in primary human mesenchymal stem cells (chondrogenic nodules, Rhodamine B / Nile Red); conditions: 6 days; for EC50: concentration required to induce 50% levels of chondrogenesis vs TGF-β3, read-out: Conc (nM) of 50% TGF-β3 activity; for Emax: relative to TGF-β3 (10 ng/mL) positive control, read-out: Max. Activity as % TGF-β3 activity
From the text: Representative compounds were screened using primary human mesenchymal stem cells (hMSCs) to determine their ability to induce chondrogenesis (process by which cartilage is developed).
Human Mesenchymal Stem Cell Culture: Primary human mesenchymal stem cells (hMSCs) were purchased from Lonza (Walkersville, Md.) and expanded in Mesenchymal Stem Cell Growth Media (Lonza). Cells between passage 3 and 6 were used for the experiments.
To image chondrogenic nodules, the cells were fixed using 4% formaldehyde (Electron Microscopy Sciences), and stained with 2 μg/mL Rhodamine B (Sigma-Aldrich) and 20 μM Nile Red (Sigma-Aldrich) [Johnson K., et. al, A Stem Cell-Based Approach to Cartilage Repair, Science, (2012). […] Number of nodules in each well was normalized to the average of 3 DMSO treated wells on the same plate using Excel (Microsoft Inc.). The normalized averages (fold change over DMSO) of 3 replicate wells for each compound concentration were calculated. Due to solubility limitations of some of the compounds, curve fitting was incomplete leading to inaccurate EC50 determinations.
Using TGF-β3 as a positive control, the concentration of representative compounds required to induce 50% levels of chondrogenesis is reported. In addition, the maximum activity of each compound and the respective dose that each compound reached maximum chondrogenesis activity is reported.

SW480 colon cancer cells = assay: Cell viability assay (CellTiter-Blue) in SW480 colon cancer cells; conditions: Homo sapiens; for EC50: 96 h, SW480 cell viability, four days, CellTiter-Blue; for inhibition at 10 µM: SW480, read-out: percent inhibition at 10 μM
Method: Representative compounds were screened using the following assay procedure to assess the effect on cell viability as described below.
Approximately 2×10^3 SW480 colon cancer cells were seeded into each well and allowed to incubate in the presence or absence of compound for four days at 37° C./5% CO2. Eight replicates of DMSO-treated cells served as controls and cells treated with compound were performed in duplicate.
After incubation, 20 μL of CellTiter-Blue (Promega) was added to each well allowed to incubate for approximately 3 hours. This reagent was a buffered solution which contains resazurin, metabolically active cells were able to reduce rezarurin (blue) into resorufin (pink) which was highly fluorescent. This measured fluorescence was used as a readout for cell viability.

[2] = test system: Wnt activity (Sp5-Luc reporter, TCF/LEF binding sites) in SW480 colon carcinoma cells; assay: Wnt activity screening assay: Sp5-Luc reporter gene assay in SW480 cells; conditions: Homo sapiens; for EC50: Sp5-Luc reporter, SW480 cells, overnight incubation; for inhibition at 10 µM: SW480, read-out: percent inhibition at 10 μM
From the text: The screening assay for Wnt activity is described as follows. Reporter cell lines can be generated by stably transducing cancer cell lines (e.g., colon cancer) or primary cells (e.g., IEC-6 intestinal cells) with a lentiviral construct that includes a Wnt-responsive promoter driving expression of the firefly luciferase gene.
SW480 colon carcinoma cells were transduced with a lentiviral vector expressing luciferase with a human Sp5 promoter consisting of a sequence of eight TCF/LEF binding sites. SW480 cells stably expressing the Sp5-Luc reporter gene and a hygromycin resistance gene were selected by treatment with 150 μg/mL of hygromycin for 7 days. These stably transduced SW480 cells were expanded in cell culture and used for all further screening activities. […] For Sp5-Luc reporter gene assays, the cells were plated at 4,000 cells/well in 384-well plates with medium containing 1% fetal bovine serum and incubated overnight at 37° C. and 5% CO2. Following incubation, 20 μl of BrightGlo luminescence reagent (Promega) was added to each well of the 384-well assay plates. The plates were placed on an orbital shaker for 2 min and then luminescence was quantified using the Envision (Perkin Elmer) plate reader. Readings were normalized to DMSO only treated cells, and normalized activities were utilized for EC50 calculations using the dose-response log (inhibitor) vs. response variable slope (four parameters) nonlinear regression feature available in GraphPad Prism 5.0 (or Dotmatics).

IL-6 in THP-1 cells = assay: IL-6 inhibition in LPS-stimulated THP-1 human monocyte cells (HTRF); conditions: for EC50: IL-6 inhibition, LPS-stimulated THP-1 cells, HTRF, 10-point dose-response starting from 10 μM; for inhibition at 10 µM: THP-1, read-out: percentage in parentheses beside EC50 >10
Method: Compound Screening: THP-1 cells were cultured in basal media with 1% FBS for 24 hours before the start of the assay. […] THP-1 cells were plated at 5000 cells/well in the 384-well plates and incubated at 37° C. for 2 h. 500 ng/mL of LPS was added after 2 hours and cells were incubated for another 22 hours at 37° C. Plates were spun in a centrifuge for 1 minute at […] and a mixture of anti-IL6 XL665, and anti-IL6 Cryptate diluted in reconstitution buffer (Cisbio Inc.) was added to each well. Following incubation for 3 hrs at room temperature, Homogeneous Time-Resolved Fluorescence (HTRF) was measured using the Envision (Perkin Elmer) at 665 nm and […]. The ratio of fluorescence at 665 nm to 620 nm was used as a readout for IL6 quantification. All samples were processed in duplicate. Readings were normalized to DMSO treated cells and normalized activities were utilized for EC50 calculations using the dose-response log (inhibitor) vs. response variable slope (four parameters) nonlinear regression feature available in GraphPad Prism 5.0 (or Dotmatics).

[3] = test system: LL29 cells (primary human fibroblasts derived from IPF patients), α-smooth muscle actin; assay: Inhibition of the fibrotic process: αSMA staining in TGF-β1 treated primary human fibroblasts from IPF patients (LL29 cells); conditions: Fibroblast; for EC50: 96 h, LL29 cells, TGF-β1 20 ng/mL, 4 days, % αSMA positive cells; for inhibition at 10 µM: read-out: percent inhibition at 10 μM
Method: Representative compounds were screened using primary human fibroblasts (derived from IPF patients) treated with TGF-β1 to determine their ability to inhibit the fibrotic process.
LL29 cells are plated at 1,500 cells/well in 80 μL/well F12 medium supplemented with 1% Fetal Bovine Serum. […] Wells treated with TGF-β1 and containing DMSO were used as controls. […] Following incubation for 4 days, SYTOX green nucleic acid stain (Life Technologies [Thermo Fisher Scientific]) was added to the wells at a final concentration of 1 μM and incubated at room temperature for 30 min.

Row | Structure (SMILES) | EC50 [1] | Emax [1] | EC50 (SW480 colon cancer cells) | EC50 [2] | EC50 (IL-6 in THP-1 cells) | EC50 [3] | inhibition at 10 µM [2] | inhibition at 10 µM (IL-6 in THP-1 cells) | inhibition at 10 µM (SW480 colon cancer cells) | inhibition at 10 µM [3]
1 | CCC(=O)Nc1cncc(-c2cnc3[nH]nc(-c4cc5c(-c6cccc(F)c6)nccc5[nH]4)c3c2)c1 [Compound 1, N-(5-(3-(4-(3-Fluorophenyl)-1H-pyrrolo[3,2-c]pyridin-2-yl)-1H-pyrazolo[3,4-b]pyridin-5-yl)pyridin-3-yl)propionamide] | 300 nM | 114% | 630 nM | 272 nM | 242 nM | 606 nM |  |  |  | 
2 | Fc1cccc(-c2nccc3[nH]c(-c4n[nH]c5ncc(-c6cccnc6)cc45)cc23)c1 [Compound 4, 3-(4-(3-Fluorophenyl)-1H-pyrrolo[3,2-c]pyridin-2-yl)-5-(pyridin-3-yl)-1H-pyrazolo[3,4-b]pyridine] |  | 50% | 3210 nM | 464 nM | 90 nM | 440 nM |  |  |  | 
3 | CC(C)C(=O)Nc1cncc(-c2cnc3[nH]nc(-c4cc5c(-c6cccc(F)c6)nccc5[nH]4)c3c2)c1 [Compound 9, N-(5-(3-(4-(3-Fluorophenyl)-1H-pyrrolo[3,2-c]pyridin-2-yl)-1H-pyrazolo[3,4-b]pyridin-5-yl)pyridin-3-yl)isobutyramide] |  | 29% | 770 nM | 575 nM | 206 nM | 622 nM |  |  |  | 
4 | CN(C)Cc1cncc(-c2cnc3[nH]nc(-c4cc5c(-c6cccc(F)c6)nccc5[nH]4)c3c2)c1 [Compound 13, 1-(5-(3-(4-(3-Fluorophenyl)-1H-pyrrolo[3,2-c]pyridin-2-yl)-1H-pyrazolo[3,4-b]pyridin-5-yl)pyridin-3-yl)-N,N-dimethylmethanamine] | 10 nM | 110% | 773 nM | 3260 nM | 6420 nM | 2440 nM |  |  |  | 
5 | CC(C)CC(=O)Nc1cncc(-c2cnc3[nH]nc(-c4cc5c(-c6ccc(F)cc6)nccc5[nH]4)c3c2)c1 [Compound 30, N-(5-(3-(4-(4-Fluorophenyl)-1H-pyrrolo[3,2-c]pyridin-2-yl)-1H-pyrazolo[3,4-b]pyridin-5-yl)pyridin-3-yl)-3-methylbutanamide] |  | 107% | 523 nM | 996 nM | 1550 nM | 261 nM |  |  |  | 
6 | CC(C)(C)C(=O)Nc1cncc(-c2cnc3[nH]nc(-c4cc5c(-c6ccc(F)cc6)nccc5[nH]4)c3c2)c1 [Compound 36, N-(5-(3-(4-(4-Fluorophenyl)-1H-pyrrolo[3,2-c]pyridin-2-yl)-1H-pyrazolo[3,4-b]pyridin-5-yl)pyridin-3-yl)pivalamide] |  | 44% | 553 nM | 980 nM | 3230 nM | 579 nM |  |  |  | 
7 | Fc1ccc(-c2nccc3[nH]c(-c4n[nH]c5ncc(-c6cncc(CN7CCCC7)c6)cc45)cc23)cc1 [Compound 42, 3-(4-(4-Fluorophenyl)-1H-pyrrolo[3,2-c]pyridin-2-yl)-5-(5-(pyrrolidin-1-ylmethyl)pyridin-3-yl)-1H-pyrazolo[3,4-b]pyridine] | 10 nM | 105% | 535 nM | 1570 nM | 3990 nM | 720 nM |  |  |  | 
8 | CCCCC(=O)Nc1cncc(-c2cnc3[nH]nc(-c4cc5c(-c6ccc(F)cc6)nccc5[nH]4)c3c2)c1 [Compound 47, N-(5-(3-(4-(4-Fluorophenyl)-1H-pyrrolo[3,2-c]pyridin-2-yl)-1H-pyrazolo[3,4-b]pyridin-5-yl)pyridin-3-yl)pentanamide] | 30 nM | 85% | 839 nM | > 10000 nM | > 10000 nM | 73 nM | 46.9% | 24.7% |  | 
9 | CS(=O)(=O)NCc1cc(F)cc(-c2nccc3[nH]c(-c4n[nH]c5ncc(-c6cncc(CNCc7ccccc7)c6)cc45)cc23)c1 [Compound 500, N-(3-(2-(5-(5-((Benzylamino)methyl)pyridin-3-yl)-1H-pyrazolo[3,4-b]pyridin-3-yl)-1H-pyrrolo[3,2-c]pyridin-4-yl)-5-fluorobenzyl)methanesulfonamide] |  |  | > 10000 nM | > 10000 nM | > 10000 nM | > 10000 nM | 19.1% | 31.3% | 23.4% | 18.3%
10 | Fc1cccc(-c2nccc3[nH]c(-c4n[nH]c5ncc(C6CCNCC6)cc45)cc23)c1 [Compound 505, 3-(4-(3-Fluorophenyl)-1H-pyrrolo[3,2-c]pyridin-2-yl)-5-(piperidin-4-yl)-1H-pyrazolo[3,4-b]pyridine] |  |  | 4470 nM | 3850 nM | 3450 nM | 5550 nM |  |  |  | 
11 | c1cc2[nH]c(-c3n[nH]c4ncc(-c5cncc(OC6CCCCC6)c5)cc34)cc2c(N2CCCCC2)n1 [Compound 607, 5-(5-(Cyclohexyloxy)pyridin-3-yl)-3-(4-(piperidin-1-yl)-1H-pyrrolo[3,2-c]pyridin-2-yl)-1H-pyrazolo[3,4-b]pyridine] |  |  | 3540 nM | 3980 nM | 7280 nM | 1990 nM |  |  |  | 
12 | CN1CCN(c2nccc3[nH]c(-c4n[nH]c5ncc(-c6cncc(NC(=O)CC7CCNCC7)c6)cc45)cc23)CC1 [Compound 641, N-(5-(3-(4-(4-Methylpiperazin-1-yl)-1H-pyrrolo[3,2-c]pyridin-2-yl)-1H-pyrazolo[3,4-b]pyridin-5-yl)pyridin-3-yl)-2-(piperidin-4-yl)acetamide] |  |  | > 10000 nM | > 10000 nM | > 10000 nM | > 10000 nM | 0% | 7.6% | 6.5% | 0%
13 | Oc1cncc(-c2cnc3[nH]nc(-c4cc5c(-c6cccs6)nccc5[nH]4)c3c2)c1 [Compound 709, 5-(3-(4-(Thiophen-2-yl)-1H-pyrrolo[3,2-c]pyridin-2-yl)-1H-pyrazolo[3,4-b]pyridin-5-yl)pyridin-3-ol] |  |  | 2480 nM | 768 nM | > 10000 nM | 289 nM |  | 48.9% |  | 
